In patent US20260015350A1, “AZAQUINAZOLINE PAN-KRAS INHIBITORS” (Mirati Therapeutics, Inc., priority 2022, published 2026) one finds IC50 data, which are given here for 14 compounds.

Structures are written as SMILES.

For one experiment, the target named is T1, KRas^G12V (Homo sapiens, UniProt P01116, G12V).
T1 construct: Biotinylated KRas (corresponding to amino acids 1-169, produced at Accelegan Inc.); biotin (biotinylated); purchased Accelegan Inc
In words: KRas binding assay (TR-FRET tracer displacement), KRas G12V. For orientation: In TR-FRET formats the signal depends on donor and acceptor labels being close together.

Experiment [1] relates to KRas-mediated phosphorylation of ERK in AsPC-1 cells. The experiment is described as follows: Inhibition of KRas-mediated phosphorylation of ERK (Cisbio HTRF pERK), AsPC-1 cells. The format is cell-based. The conditions noted are these: HTRF pERK. The procedure:
(§1) Inhibition of KRas Phosphorylation of ERK (HTRF) by Exemplary Compounds of Formula (I) Cisbio HTRF Advanced PERK Assay Catalog #64[…] […] Add 10 mL of media to stop trypsinizing. Pipette the cells into a conical bottom 50 mL centrifuge tube and centrifuge 5 min×1000 rpm. […] Re-suspend the cell pellet in media, take a cell count, and then adjust the cell density using fresh media. […] Seed 6,000 cells into cell culture plate with 50 μL media. […] Use Tecan to complete the compound addition. Compounds start from 10 uM top, 3-fold dilution, and 10 doses. The final DMSO concentration is 0.8%. Dispensed 0.2 uM Trametinib as Min control. […] Incubate cell plate for 3 hrs in the incubator. […] Dilute 1 volume of 4× lysis buffer with 3 volumes of deionized water. […] Keep lysis buffer on the ice. […] At the end of the compound treatment, flick-off the media. […] Add 35 μL of lysis buffer per well using a Multidrop Combi. Then place on a plate agitator shaking at 300 rpm at 4° C. for 40 mins. […] Make up the HTRF antibody buffer. For each assay plate, mix 50 μL of d2-conjugate antibody with 950 μL of detection buffer. Similarly, mix 50 μL of Cryptate antibody with 950 μL of detection buffer. Then mix the two diluted antibodies together. […] Dispense 3.4 μL the antibody buffer to wells of an empty assay plate. Seal the plate and centrifuge plate 30 sec×1000 rpm. […] At the end of the 4° C. lysis, centrifuge the lysate plates 3 mins×1500 rpm. […] Use the Bravo to transfer 13.6 μL of lysate from cell culture plate to assay plate. Then incubate assay plate for 2 hrs at room temperature. 8. At the end of incubation, read plate on the Envision after centrifuging plate 30 sec×1000 rpm.

The target of another experiment is T2, KRas^G12R (Homo sapiens, UniProt P01116, G12R).
T2 construct: Biotinylated KRas (corresponding to amino acids 1-169, produced at Accelegan Inc.); biotin (biotinylated); purchased Accelegan Inc
In words: KRas binding assay (TR-FRET tracer displacement), KRas G12R.

Experiment [2] concerns KRas-mediated phosphorylation of ERK in H727 cells. The experiment is described as follows: Inhibition of KRas-mediated phosphorylation of ERK (Cisbio HTRF pERK), H727 cells. The conditions noted are these: HTRF pERK. The format is cell-based. The procedure:
as §1

The target of the next experiment is T3, KRas^G12D (Homo sapiens, UniProt P01116, G12D).
T3 construct: Biotinylated KRas (corresponding to amino acids 1-169, produced at Accelegan Inc.); biotin (biotinylated); purchased Accelegan Inc
The experiment is described as follows: KRas binding assay (TR-FRET tracer displacement), KRas G12D.

Where [3] appears, read: Homo sapiens, ASPC1, AsPC-1 cells.
Setting [4] is: Homo sapiens, NCI-H727, H727 cells.

T3 sequence (P01116 1-169 isoform P01116-2 G12D): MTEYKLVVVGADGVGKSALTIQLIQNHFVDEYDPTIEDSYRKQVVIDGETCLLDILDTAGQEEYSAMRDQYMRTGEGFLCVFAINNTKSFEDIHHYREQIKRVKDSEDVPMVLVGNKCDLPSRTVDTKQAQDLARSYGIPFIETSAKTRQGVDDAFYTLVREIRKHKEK
T2 sequence (P01116 1-169 isoform P01116-2 G12R): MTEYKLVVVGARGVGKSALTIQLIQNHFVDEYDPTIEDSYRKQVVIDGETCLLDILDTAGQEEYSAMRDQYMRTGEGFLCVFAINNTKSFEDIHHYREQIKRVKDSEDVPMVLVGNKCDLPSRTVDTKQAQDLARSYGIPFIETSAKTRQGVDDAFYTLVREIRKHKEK
T1 sequence (P01116 1-169 isoform P01116-2 G12V): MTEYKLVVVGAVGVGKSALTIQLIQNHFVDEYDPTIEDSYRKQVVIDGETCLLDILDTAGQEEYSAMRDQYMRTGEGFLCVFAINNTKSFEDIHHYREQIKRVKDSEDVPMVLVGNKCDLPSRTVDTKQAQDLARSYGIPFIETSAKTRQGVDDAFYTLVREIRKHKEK

In the case of `CCc1c(F)ccc2cc(O)cc(-c3ncc4c(N5C[C@H]6C[C@@H](C5)[C@@H](O)[C@@H]6O)nc(OC[C@@]56CCCN5C[C@H](F)C6)nc4c3F)c12` (single isomer, unassigned) [Example 571], the half-maximal inhibitory concentration (IC50) on KRas^G12V was 62 nM; in experiment [1] (setting [3]), more than 10000 nM; on KRas^G12R, 59 nM; in experiment [2] (setting [4]), more than 10000 nM; at KRas^G12D, 300 nM.

Turning to `CCc1c(F)ccc2cc(O)cc(-c3ncc4c(N5CCCC(C6CCNC6=O)C5)nc(OC[C@@]56CCCN5C[C@H](F)C6)nc4c3F)c12` (single isomer, unassigned) [Example 617], the half-maximal inhibitory concentration (IC50) on KRas^G12V worked out at 4 nM; in experiment [1] (AsPC-1 cells), 1550 nM; on KRas^G12R, 4 nM; in experiment [2] (H727 cells) it was 763 nM; on KRas^G12D, 9 nM.

In the case of `CCc1c(F)ccc2cc(O)cc(-c3ncc4c(N5CCCC(C6CCNC6=O)C5)nc(OC[C@@]56CCCN5C[C@H](F)C6)nc4c3F)c12` (single isomer, unassigned) [Example 618], the IC50 is 168 nM on KRas^G12V; more than 10000 nM in experiment [1] (AsPC-1 cells); 195 nM on KRas^G12R; more than 10000 nM in experiment [2] (H727 cells); 644 nM on KRas^G12D.

With `CCc1c(F)ccc2cc(O)cc(-c3ncc4c(N5CCCC(C6CCNC6=O)C5)nc(OC[C@@]56CCCN5C[C@H](F)C6)nc4c3F)c12` (single isomer, unassigned) [Example 619], the 50% inhibitory concentration (IC50) on KRas^G12V came out at 21 nM; in experiment [1] (AsPC-1 cells), 3620 nM; at KRas^G12R, 4 nM; in experiment [2] (H727 cells), 1810 nM; at KRas^G12D it was 33 nM.

In the case of `O=C1CC2CN(c3nc(OCC45CCCN4CCC5)nc4c(F)c(-c5cccc6cccc(F)c56)ncc34)CCC2C(=O)N1` (stereo not shown) [Example 526, 6-(8-fluoro-7-(8-fluoronaphthalen-1-yl)-2-((hexahydro-1H-pyrrolizin-7a-yl)methoxy)pyrido[4,3-d]pyrimidin-4-yl)hexahydro-2,6-naphthyridine-1,3(2H,4H)-dione], the IC50 is more than 100000 nM on KRas^G12V; more than 10000 nM in experiment [1] (setting [3]); 67700 nM at KRas^G12R; more than 10000 nM in experiment [2] (setting [4]); more than 100000 nM on KRas^G12D.

Take `CCc1c(F)ccc2cc(O)cc(-c3ncc4c(N5CCC[C@@](C)(O)C5)nc(N5CC(N)C5)nc4c3F)c12` [Example 527, (R)-1-(2-(3-aminoazetidin-1-yl)-7-(8-ethyl-7-fluoro-3-hydroxynaphthalen-1-yl)-8-fluoropyrido[4,3-d]pyrimidin-4-yl)-3-methylpiperidin-3-ol]: the half-inhibitory concentration (IC50) on KRas^G12V is 150 nM; in experiment [1] (setting [3]) it was more than 10000 nM; at KRas^G12R it was 193 nM; in experiment [2] (setting [4]), more than 10000 nM; at KRas^G12D it was 116 nM.

For the compound `CCc1c(F)ccc2cc(O)cc(-c3ncc4c(N5CCCC6(C5)NC(=O)NC6=O)nc(N5CC(N)C5)nc4c3F)c12` (stereo not shown) [Example 528, 7-(2-(3-aminoazetidin-1-yl)-7-(8-ethyl-7-fluoro-3-hydroxynaphthalen-1-yl)-8-fluoropyrido[4,3-d]pyrimidin-4-yl)-1,3,7-triazaspiro[4.5]decane-2,4-dione], the IC50 on KRas^G12V is 3 nM; in experiment [1] (setting [3]), more than 10000 nM; on KRas^G12R it was 3 nM; in experiment [2] (setting [4]), more than 10000 nM; at KRas^G12D it was 8 nM.

Take `CCc1c(F)ccc2cc(O)cc(-c3ncc4c(N5CCCn6nc(C(=O)N(C)C)cc6C5)nc(N5CC(N)C5)nc4c3F)c12` [Example 529, 5-(2-(3-aminoazetidin-1-yl)-7-(8-ethyl-7-fluoro-3-hydroxynaphthalen-1-yl)-8-fluoropyrido[4,3-d]pyrimidin-4-yl)-N,N-dimethyl-5,6,7,8-tetrahydro-4H-pyrazolo[1,5-a][1,4]diazepine-2-carboxamide]: the 50% inhibitory concentration (IC50) on KRas^G12V is 21 nM; in experiment [1] (setting [3]), more than 10000 nM; at KRas^G12R, 36 nM; in experiment [2] (setting [4]), more than 10000 nM; at KRas^G12D, 14 nM.

Consider `O[C@@H]1C[C@H]2C[C@@H]1CN(c1nc(OC[C@@]34CCCN3C[C@H](F)C4)nc3c(F)c(-c4cccc5cc(C(F)F)ccc45)ncc13)C2` [Example 841, (1R,5R,6R)-3-(7-(6-(difluoromethyl)naphthalen-1-yl)-8-fluoro-2-(((2R,7aS)-2-fluorotetrahydro-1H-pyrrolizin-7a(5H)-yl)methoxy)pyrido[4,3-d]pyrimidin-4-yl)-3-azabicyclo[3.2.1]octan-6-ol], for which the IC50 on KRas^G12V came out at 34000 nM; on KRas^G12R, 62900 nM; on KRas^G12D it was 66900 nM.

As to `CCc1c(F)ccc2cc(O)cc(-c3ncc4c(N5CCN(C)C[C@]6(C)CCC[C@@H]56)nc(OC[C@@]56CCCN5C[C@H](F)C6)nc4c3F)c12` [Example 866, 4-(4-((5aS,8aR)-4,5a-dimethyloctahydrocyclopenta[e][1,4]diazepin-1(2H)-yl)-8-fluoro-2-(((2R,7aS)-2-fluorotetrahydro-1H-pyrrolizin-7a(5H)-yl)methoxy)pyrido[4,3-d]pyrimidin-7-yl)-5-ethyl-6-fluoronaphthalen-2-ol], the IC50 on KRas^G12V stood at 3530 nM; on KRas^G12R, 7350 nM; at KRas^G12D it was 102 nM.

On to `CCCCCCCCCCN(C)C(=O)OC[C@@H]1CC[C@@]2(COc3nc(N4CCC[C@@](C)(O)C4)c4cnc(-c5cc(O)cc6ccc(F)c(CC)c56)c(F)c4n3)CCCN12` [Example 894, ((3S,7aR)-7a-(((7-(8-ethyl-7-fluoro-3-hydroxynaphthalen-1-yl)-8-fluoro-4-((R)-3-hydroxy-3-methylpiperidin-1-yl)pyrido[4,3-d]pyrimidin-2-yl)oxy)methyl)hexahydro-1H-pyrrolizin-3-yl)methyl decyl(methyl)carbamate], for which the values for the IC50 at KRas^G12V, at KRas^G12R and at KRas^G12D were 119 nM, 177 nM and 121 nM, respectively.

In the case of `O[C@@H]1CCCN(c2nc(OCC34CCCN3CCC4)nc3c(F)c(-c4cccc5cccc(Cl)c45)ncc23)C1` [Example 902, (R)-1-(7-(8-chloronaphthalen-1-yl)-8-fluoro-2-((tetrahydro-1H-pyrrolizin-7a(5H)-yl)methoxy)pyrido[4,3-d]pyrimidin-4-yl) piperidin-3-ol], the IC50 on KRas^G12V was 902 nM; on KRas^G12R, 876 nM; at KRas^G12D it was 834 nM.

In the case of `O[C@H]1CCCN(c2nc(OCC34CCCN3CCC4)nc3c(F)c(-c4cccc5cccc(Cl)c45)ncc23)C1` [Example 903, (S)-1-(7-(8-chloronaphthalen-1-yl)-8-fluoro-2-((tetrahydro-1H-pyrrolizin-7a(5H)-yl)methoxy)pyrido[4,3-d]pyrimidin-4-yl) piperidin-3-ol], the IC50 at KRas^G12V is 15100 nM; at KRas^G12R it was 11200 nM; at KRas^G12D, 9830 nM.

Regarding `O=S1(=O)NCC2(CCCN(c3nc(OCC45CCCN4CCC5)nc4c(F)c(-c5cccc6cccc(CO)c56)ncc34)C2)N1` (stereo not shown) [Example 906, 7-(8-fluoro-7-(8-(hydroxymethyl)naphthalen-1-yl)-2-((tetrahydro-1H-pyrrolizin-7a(5H)-yl)methoxy)pyrido[4,3-d]pyrimidin-4-yl)-2-thia-1,3,7-triazaspiro[4.5]decane 2,2-dioxide], the IC50 stood at 247 nM at KRas^G12V, 646 nM at KRas^G12R and 66 nM at KRas^G12D.

For orientation: IC50 means the concentration needed to halve the response being measured.
